Measurements reported in ChEMBL document CHEMBL1129901, “Amide bond surrogates: A study in thiophenesulfonamide based endothelin receptor antagonists” (Bioorg Med Chem Lett, 1997).

How the values were obtained:
[1] = biological target: T1, Endothelin-1 receptor (Homo sapiens, UniProt P25101); assay: Inhibitory of human Endothelin A receptor by using I-ET-1 as radioligand in a competitive radioligand assay
T1 sequence (P25101 whole entry): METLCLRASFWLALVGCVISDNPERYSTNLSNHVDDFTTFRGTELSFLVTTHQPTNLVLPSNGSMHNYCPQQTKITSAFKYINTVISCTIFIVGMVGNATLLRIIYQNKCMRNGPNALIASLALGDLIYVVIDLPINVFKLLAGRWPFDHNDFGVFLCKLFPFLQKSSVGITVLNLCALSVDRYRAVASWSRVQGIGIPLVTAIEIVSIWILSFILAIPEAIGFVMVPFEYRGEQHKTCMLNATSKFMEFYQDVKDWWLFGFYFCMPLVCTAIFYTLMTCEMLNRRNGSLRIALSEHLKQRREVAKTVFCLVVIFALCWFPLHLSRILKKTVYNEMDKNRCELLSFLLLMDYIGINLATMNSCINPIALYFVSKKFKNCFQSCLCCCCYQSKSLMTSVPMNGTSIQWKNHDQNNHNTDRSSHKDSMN

[2] = biological target: T2, Endothelin receptor type B (Homo sapiens, UniProt P24530); assay: Inhibition of human Endothelin B receptor using I-ET-1 as radioligand in a competitive radioligand assay
T2 sequence (P24530 whole entry): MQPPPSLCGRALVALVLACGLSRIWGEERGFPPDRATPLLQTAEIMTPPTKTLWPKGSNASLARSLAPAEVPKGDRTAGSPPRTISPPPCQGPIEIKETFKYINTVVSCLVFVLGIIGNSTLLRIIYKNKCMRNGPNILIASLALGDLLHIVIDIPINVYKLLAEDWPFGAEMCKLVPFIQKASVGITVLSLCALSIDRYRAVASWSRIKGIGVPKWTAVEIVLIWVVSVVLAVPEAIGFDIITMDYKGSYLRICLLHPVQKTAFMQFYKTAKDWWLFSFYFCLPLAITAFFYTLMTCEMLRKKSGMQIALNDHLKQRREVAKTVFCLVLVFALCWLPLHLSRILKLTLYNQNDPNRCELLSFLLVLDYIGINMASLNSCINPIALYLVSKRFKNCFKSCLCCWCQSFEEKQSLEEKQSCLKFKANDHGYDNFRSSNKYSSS

[3] = biological target: T2, Endothelin receptor type B; assay: Tested for the inhibitory activity of cloned human ETB receptor by using I-ET-1 as radioligand in a competitive radioligand assay
[4] = biological target: T1, Endothelin-1 receptor; assay: Tested for the inhibitory activity of cloned human ETA receptor by using I-ET-1 as radioligand in a competitive radioligand assay

Row | SMILES | IC50 [1] [nM] | IC50 [2] [nM] | IC50 [3] [nM] | IC50 [4] [nM]
1 | Cc1ccc(CCc2ccsc2S(=O)(=O)Nc2onc(C)c2Br)c(C)c1 | 102 | – | – | –
2 | Cc1ccc(CCc2sccc2S(=O)(=O)Nc2onc(C)c2Br)cc1 | – | 11700 | – | –
3 | Cc1ccc(/C=C/c2ccsc2S(=O)(=O)Nc2onc(C)c2Br)cc1 | – | 6630 | – | –
4 | Cc1cc(C)c(CCc2sccc2S(=O)(=O)Nc2onc(C)c2Br)c(C)c1 | 46 | 2090 | – | –
5 | Cc1cc(C)c(CCc2ccsc2S(=O)(=O)Nc2onc(C)c2Br)c(C)c1 | 58 | 1390 | – | –
6 | Cc1cc(C)c(/C=C/c2ccsc2S(=O)(=O)Nc2onc(C)c2Br)c(C)c1 | 53 | 1720 | – | –
7 | Cc1noc(NS(=O)(=O)c2sccc2CCc2ccc3c(c2)OCO3)c1Br | 237 | 17900 | – | –
8 | Cc1ccc(/C=C/c2ccsc2S(=O)(=O)Nc2onc(C)c2Br)c(C)c1 | 180 | 2970 | – | –
9 | Cc1cc(C)c(NC(=O)c2sccc2S(=O)(=O)Nc2onc(C)c2Cl)c(C)c1 | 630 | – | – | –

Continued, values first:

Row | IC50 [1] [nM] | IC50 [2] [nM] | IC50 [3] [nM] | IC50 [4] [nM] | SMILES
10 | 73 | 4130 | – | – | Cc1noc(NS(=O)(=O)c2sccc2/C=C/c2cc3c(cc2COC2CCOCC2)OCO3)c1Br
11 | 79 | 3240 | – | – | Cc1noc(NS(=O)(=O)c2sccc2/C=C/c2cc3c(cc2CO)OCO3)c1Br
12 | 141 | 5250 | – | – | Cc1noc(NS(=O)(=O)c2ccsc2/C=C/c2ccc3c(c2)OCO3)c1Br
13 | 91 | 12400 | – | – | Cc1cc2c(cc1CCc1ccsc1S(=O)(=O)Nc1onc(C)c1Br)OCO2
14 | 205 | 9240 | – | – | Cc1noc(NS(=O)(=O)c2ccsc2CCc2ccc3c(c2)OCO3)c1Br
15 | – | – | 5370 | 72 | Cc1cc2c(cc1/C=C/c1ccsc1S(=O)(=O)Nc1onc(C)c1Br)OCO2
16 | 62 | 8900 | – | – | Cc1cc2c(cc1CCc1sccc1S(=O)(=O)Nc1onc(C)c1Br)OCO2
17 | 166 | 2970 | – | – | Cc1ccc(/C=C/c2sccc2S(=O)(=O)Nc2onc(C)c2Br)c(C)c1
18 | 44 | 2000 | – | – | Cc1cc(C)c(/C=C/c2sccc2S(=O)(=O)Nc2onc(C)c2Br)c(C)c1
19 | 231 | 4130 | – | – | Cc1ccc(/C=C/c2sccc2S(=O)(=O)Nc2onc(C)c2Br)cc1
20 | 81 | 3280 | – | – | Cc1cc2c(cc1/C=C/c1sccc1S(=O)(=O)Nc1onc(C)c1Br)OCO2
21 | 218 | 9950 | – | – | Cc1noc(NS(=O)(=O)c2sccc2/C=C/c2ccc3c(c2)OCO3)c1Br
